The record followed here is ChEMBL document CHEMBL1201862, “PubChem BioAssay data set” (2004).

As a reminder, the AC50 is the concentration at which the activity in the assay is half-maximal.

One test addresses Cytochrome P450 3A4 (Homo sapiens, UniProt P08684).
The target of the next test is Cytochrome P450 2C9 (Homo sapiens, UniProt P11712).
A short description of test [1]: Luminescence Cell-Based Dose Confirmation HTS to Identify Activators of 5'UTR Stem-Loop Driven Alpha-Synuclein mRNA Translation in H4 Neuroglioblastoma Cells. [Related pubchem assays: 1829 (Project Summary), 1814 (Primary HTS)]. The format is functional.
Test [2] can be described thus: Luminescence Cell-Based Dose Response HTS to Identify Activators of Luciferase Translation or Activity in H4 […] Cells. [Related pubchem assays: 1829 (Project Summary), 1814 (Primary HTS)]. It counts as functional.
The next test concerns H4. The experiment in a line: Luminescence Cell-Based Dose Response HTS to Identify Activators of 5'UTR Stem-Loop Driven Prion Protein mRNA Translation in H4 Neuroglioblastoma Cells. [Related pubchem assays: 1829 (Project Summary), 1814 (Primary HTS)]. The format is functional. To be noted: Homo sapiens.
The nature of test [3]: inhibitors of intracellular T. cruzi replication, confirmation, NIH3T3 host cells, beta-gal luminescence (AID 2044).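 Note: intracellular parasites grown in NIH/3T3 mouse fibroblasts as host cells; luminescent beta-galactosidase reporter signal from transgenic T. cruzi replicating inside host cells; inhibitors lower the luminescence signal.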 The format is functional, cell-based.
Test [4] can be described thus: cytotoxicity toward NIH3T3 fibroblasts, dose response, counter-screen, cell-based, ATP luminescence, mouse fibroblasts (AID 2010).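 Note: cells exposed to compound for about 90 hours before reading.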 The format is functional. For orientation: A counterscreen serves to expose hits that act by an unwanted route or on another target.
The target in test [5] is T1, Corticotropin-releasing factor receptor 2/Corticotropin-releasing factor-binding protein (Homo sapiens, UniProt P24387+Q13324).
T1 sequence (Q13324 whole entry): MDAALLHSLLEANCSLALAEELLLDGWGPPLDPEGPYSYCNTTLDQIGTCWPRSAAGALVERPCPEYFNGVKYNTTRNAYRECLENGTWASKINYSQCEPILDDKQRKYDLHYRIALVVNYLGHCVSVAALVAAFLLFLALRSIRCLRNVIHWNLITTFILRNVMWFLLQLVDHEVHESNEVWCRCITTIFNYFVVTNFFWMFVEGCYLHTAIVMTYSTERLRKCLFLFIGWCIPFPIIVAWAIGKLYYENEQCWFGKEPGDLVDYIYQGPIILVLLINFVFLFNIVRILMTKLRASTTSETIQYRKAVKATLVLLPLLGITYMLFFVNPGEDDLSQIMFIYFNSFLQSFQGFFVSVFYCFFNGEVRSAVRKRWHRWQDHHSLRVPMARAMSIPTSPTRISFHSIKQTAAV
T1 sequence (P24387 whole entry): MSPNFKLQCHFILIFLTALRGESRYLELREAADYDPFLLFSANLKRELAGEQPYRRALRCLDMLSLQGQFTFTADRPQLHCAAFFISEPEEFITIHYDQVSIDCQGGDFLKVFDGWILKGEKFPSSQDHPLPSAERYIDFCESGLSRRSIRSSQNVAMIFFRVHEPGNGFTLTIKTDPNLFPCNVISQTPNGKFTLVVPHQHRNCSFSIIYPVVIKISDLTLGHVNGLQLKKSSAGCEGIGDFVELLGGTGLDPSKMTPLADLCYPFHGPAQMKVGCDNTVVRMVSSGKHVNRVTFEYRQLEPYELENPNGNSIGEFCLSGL
The experiment in a line: activators of CRF receptor 2 with binding protein – uHTS hits, confirmation (AID 602473). The following applies: read-out: EC50_Mean. The format is functional.

Test [6] has as its system Streptococcus sp. 'group A'. The experiment in a line: growth inhibition of control SK(-) GAS strain, dose response, counter-screen for streptokinase expression inhibitor project, luminescence, kanamycin, BacTiterGlo, confirmation (AID 1900). It counts as functional, organism-based.
The next test deals with Streptococcus. The test is described as follows: Group A Streptococcus viability loss, dose response, counter-screen for streptokinase expression inhibitor project, luminescence, BacTiterGlo (AID 1915).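 Note: potency for reduction of bacterial viability or growth.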 The format is functional, organism-based.

Activity calls are given as the source filed them. Cut-off read from the data, not from the text of the source, for most assays here: actives have a measured EC50 and inactives only a lower limit.

Sequence of Cytochrome P450 3A4 (P08684 whole entry): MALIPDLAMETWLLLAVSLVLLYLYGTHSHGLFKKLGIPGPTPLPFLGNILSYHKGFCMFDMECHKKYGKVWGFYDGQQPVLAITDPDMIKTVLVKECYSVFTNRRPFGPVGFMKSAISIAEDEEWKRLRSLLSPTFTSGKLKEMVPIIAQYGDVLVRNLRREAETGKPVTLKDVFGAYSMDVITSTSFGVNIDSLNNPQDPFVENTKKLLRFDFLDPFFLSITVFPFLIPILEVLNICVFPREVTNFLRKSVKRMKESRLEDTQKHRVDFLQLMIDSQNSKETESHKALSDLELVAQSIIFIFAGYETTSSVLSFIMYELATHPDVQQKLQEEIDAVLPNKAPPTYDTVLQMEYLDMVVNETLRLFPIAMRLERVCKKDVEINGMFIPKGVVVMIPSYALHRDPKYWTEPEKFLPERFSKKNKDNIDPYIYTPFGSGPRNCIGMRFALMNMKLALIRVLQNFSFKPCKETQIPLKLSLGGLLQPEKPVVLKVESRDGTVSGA
Sequence of Cytochrome P450 2C9 (P11712 whole entry): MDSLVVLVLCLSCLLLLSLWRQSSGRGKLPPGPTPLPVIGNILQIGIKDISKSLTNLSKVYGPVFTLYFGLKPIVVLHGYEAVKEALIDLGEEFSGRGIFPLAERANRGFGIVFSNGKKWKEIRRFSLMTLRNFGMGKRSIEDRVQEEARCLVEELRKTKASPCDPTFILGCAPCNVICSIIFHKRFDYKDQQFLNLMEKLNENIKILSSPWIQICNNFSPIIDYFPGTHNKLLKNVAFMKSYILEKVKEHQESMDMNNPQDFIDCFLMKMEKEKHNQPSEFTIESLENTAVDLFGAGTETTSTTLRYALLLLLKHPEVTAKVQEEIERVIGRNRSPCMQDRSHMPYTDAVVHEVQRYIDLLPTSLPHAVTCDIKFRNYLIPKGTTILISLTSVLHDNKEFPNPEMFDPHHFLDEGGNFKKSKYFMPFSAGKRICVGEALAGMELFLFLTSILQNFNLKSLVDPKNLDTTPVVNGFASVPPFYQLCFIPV

On to `O=C(O)c1cc2c(cc1S(=O)(=O)O)[C@H]1[C@@H](C3[C@H]2[C@@]2(Cl)C(Cl)=C(Cl)[C@@]3(Cl)C2(Cl)Cl)[C@]2(Cl)C(Cl)=C(Cl)[C@]1(Cl)C2(Cl)Cl` (stereo partly drawn), for which the AC50 at Cytochrome P450 3A4 is 3.16 µM (inconclusive).
For the compound `S=C(NCc1ccco1)N1CCN(Cc2ccco2)CC1`, the AC50 at Cytochrome P450 2C9 was 14.1 µM (inconclusive).
Still for that read-out and setting: in the case of `CN(C)c1ccc(-c2nccc(Nc3ccc(F)cc3)n2)cc1` it was 0.631 µM (inconclusive).
In the case of `COc1ccc(-c2c/c(=N/c3c(C)n(C)n(-c4ccccc4)c3=O)c3ccccc3o2)cc1`, the EC50 was 11.1 µM (active) in test [1], 11.1 µM (active) in test [2] and 2.02 µM (active) with H4.
As to `COc1ccc(/C=C(\NC(=O)c2ccccc2)C(=O)N/N=C/c2ccncc2)cc1`, the AC50 at Cytochrome P450 2C9 was 12.6 µM (active).
Regarding `CCCCn1nc(C(=O)Nc2nc3c(s2)CCCC3)c2ccccc2c1=O`, the EC50 in test [3] was 1.73 µM (active); in test [4], > 60 µM (inconclusive).
With `CC(c1ccon1)N(C)Cc1c[nH]nc1-c1ccc(-c2ccccc2)cc1` (stereo not drawn), the figures for the EC50 (in [1]; in test [2]; in the test with H4) were > 120 µM (not active), 30.5 µM (active) and > 120 µM (not active), respectively.
In the case of `CC1CCC(=C(C#N)c2nc(-c3cc4ccccc4oc3=O)cs2)CC1` (stereo not drawn), in [2], the EC50 was 0.106 µM (active).
Take `Cc1ccc(N2CCN(c3ccc(C)cc3)C2c2cccnc2)cc1`: the EC50 in [3] is 0.768 µM (active); in test [4], > 60 µM (not active).
Consider `O=C(Nc1ccc2c(c1)OCO2)N1CCN(c2ccccc2)CC1`, for which the EC50 in [1] was > 120 µM (not active); in test [2], 16.2 µM (active); with H4, 10.3 µM (active).
`CC(=N)/C(C#N)=C(/O)CSc1nnc(Nc2cccc(C)c2)s1`: the EC50 in test [1] is 10.1 µM (active); in test [2], 45.1 µM (active); in the test on H4 it was > 120 µM (not active).
With `CC1=C(C#N)C(Nc2ccc(Cl)cn2)(C(F)(F)F)C(=O)N1` (stereo not drawn), the AC50 on Cytochrome P450 3A4 was 15.8 µM (inconclusive).
`Cc1ncc(CC(=O)n2cc(C(=O)c3cc(Cl)ccc3O)cn2)s1`: the EC50 in [1] was 16.5 µM (active); in test [2] it was > 120 µM (not active); with H4 it was 40.2 µM (active).
For the compound `COc1cc(C=C(C#N)C#N)cc(O)c1O`, at Cytochrome P450 3A4, the AC50 was 10 µM (inconclusive).
`COC(=O)c1ccc(N2OC3(C)C=CC2CC3)cc1` (stereo not drawn): the EC50 in test [1] is 9.96 µM (active); in test [2], 5.16 µM (active); in the test with H4 it was 13.5 µM (active).
`Cc1cccc2nc(-c3ccccc3)nc(N3CCC(O)(c4ccc(Cl)cc4)CC3)c12`: the EC50 in test [3] was 0.301 µM (active); in test [4], > 60 µM (not active).
With `CN(CCNC(=O)C1CC(=O)N(c2ccc(F)c(Cl)c2)C1)Cc1ccccc1` (stereo not drawn), the EC50 was 0.22 µM (active) in test [3] and > 60 µM (not active) in test [4].
For `Nc1nonc1-c1noc(CCCN2C(=O)c3ccccc3C2=O)n1`, the results for the EC50 (in test [1]; in test [2]; in the test with H4) were 12.9 µM (active), 12.1 µM (active) and 15.7 µM (active), respectively.
On to `C/C(=N\NC(=S)Nc1cccc(C)c1)c1ccco1`, for which the EC50 in test [3] was 2.8 µM (active); in [4] it was > 60 µM (not active).
`Cc1nc(S(=O)(=O)N(C)c2ccccc2)c(C#N)c(C)c1Cl`: the AC50 at Cytochrome P450 2C9 was 17.8 µM (inconclusive).
Consider `C=CCN=C(S)N1CCN(c2ncc3c(=O)c(C(=O)O)cn(CC)c3n2)CC1`, for which the AC50 at Cytochrome P450 2C9 is 0.224 µM (inconclusive).
Consider `CCOC(=O)Cc1cc(-c2ccc(OC)cc2)nc2ccc3ccccc3c12`, for which the EC50 was 9.64 µM (active) in [1], 12.6 µM (active) in test [2] and 15.6 µM (active) with H4.
The corresponding values for `O=C(Nc1ccc2c[nH]nc2c1)c1ccc(Cl)c(S(=O)(=O)N2CCOCC2)c1` are 6.56 µM (active), 42.2 µM (active) and 27.6 µM (active).
As for `CCN(CC)c1nc(C=Cc2ccc(N(C)C)cc2)c2nccnc2n1`, in test [5], the EC50 is 2.56 µM (active).
`O=C(CCN1C(=O)S/C(=C\C=C\c2ccccc2)C1=O)Nc1ccc(O)cc1`: the EC50 in test [2] was 0.155 µM (active); with H4, 8.5 µM (active).
Regarding `CC1(C)CC(=O)c2cc(NC=C(C(=O)c3ccccc3)C(=O)c3ccccc3)c(=O)oc2C1`, the values for the EC50 (in [1]; in [2]; with H4) were 15.6 µM (active), > 60 µM (not active) and > 120 µM (not active), respectively.
As for `COC(=O)c1ccc(-c2ccc(/C=N/N3C(=O)C4C5C=CC(CC5)C4C3=O)o2)cc1` (stereo not drawn), the results for the EC50 (in test [1]; in test [2]; in the test with H4) were 6.71 µM (active), 19.5 µM (active) and 18.9 µM (active), respectively.
In the same order, the values of `CCOC(=O)C1CCN(c2nnc(N3CCCC3=O)s2)CC1` are 3.42 µM (active), 6.58 µM (active) and 33 µM (active).
Turning to `Sc1ncnc2scc(-c3ccc(Cl)cc3)c12`, the EC50 in [6] was 13.1 µM (active); with Streptococcus it was 47.4 µM (active).
For the compound `Cc1cccc(CCN2CCN=C2Nc2ccccc2)c1`, in [5], the EC50 was 14 µM (active).
Turning to `COc1ccc(C(=N)NOC(=O)c2c(-c3ccccc3Cl)noc2C)cc1OC`, the results for the EC50 in [3] and in [4] were 1.49 µM (active) and 10.7 µM (active), respectively.
Regarding `Cc1ccc(OCCn2cnc3ccccc3c2=O)c([N+](=O)[O-])c1`, the EC50 was 0.247 µM (active) in [1] and 2.44 µM (active) in [2].
Take `CC(C)CC(=O)Nc1ccc(C(=O)COC(=O)Cc2n[nH]c(=O)c3ccccc23)cc1`: the EC50 in test [5] was 12.4 µM (active).
With `COc1cc(/C=C/C(=O)OCC(=O)c2c(N)n(C)c(=O)n(C)c2=O)ccc1OCC#N`, the EC50 in [6] was 7.23 µM (active); with Streptococcus, 4.1 µM (active).
For `CCOC(=O)c1c(NC(=O)CSc2nnc(-c3ccncc3)n2Cc2ccco2)sc(C)c1C`, the EC50 in test [3] is 2.9 µM (active); in [4], > 60 µM (not active).
Regarding `Nn1c(CSc2ccccn2)nc2ccccc2c1=O`, the EC50 in test [1] is 42.9 µM (active); in test [2] it was 35.2 µM (active); in the test on H4, 23.3 µM (active).
In the same order, the values of `Cc1ccc(CN2C(=O)N/C(=C/c3cc(C)n(-c4ccccn4)c3C)C2=O)cc1` are 11.9 µM (active), 7.26 µM (active) and > 120 µM (not active).
With `O=C(COc1ccc(F)cc1)N(Cc1cccs1)C1CCS(=O)(=O)C1` (stereo not drawn), the EC50 in test [5] is > 53 µM (inactive).
On to `CS(=O)(=O)N(Cc1ccccc1)c1ccc(C(=O)N2CCOCC2)cc1`, for which the EC50 in [5] is > 53 µM (inactive).
Take `COc1ccc(C(CNc2ccc(S(=O)(=O)N3CCCC3)cc2[N+](=O)[O-])N2CCCC2)cc1` (stereo not drawn): the figures for the EC50 in [3] and in [4] were 0.843 µM (active) and 31.8 µM (active), respectively.
For the compound `CCc1nnc(NC(=O)/C=C/c2ccco2)s1`, the values for the EC50 (in test [1]; in [2]; in the test with H4) were 13.7 µM (active), 54.5 µM (active) and 6.44 µM (active), respectively.
On to `Cc1ccc(S(=O)(=O)Nc2ccc(N3CCN(C)CC3)nc2)cc1`, for which the EC50 in test [3] is 1.26 µM (active); in test [4], > 60 µM (not active).
Regarding `COc1ccc(-c2cc(-c3ccccc3)c(C#N)c(SCC(=O)Nc3ncc(C)s3)n2)cc1`, the figures for the EC50 in test [3] and in test [4] were > 60 µM (not active) and > 60 µM (inconclusive), respectively.
Regarding `CC1CCN(CC(=O)Nc2cccc([N+](=O)[O-])c2)CC1`, on Cytochrome P450 2C9, the AC50 was 15.8 µM (inconclusive).
On to `O=C(c1c[nH]cc1-c1ccccc1)c1cccc2ccccc12`, for which the EC50 in [3] is 1.93 µM (active); in test [4] it was 4.49 µM (active).
Regarding `COc1ccc2nc(N3CCN(C(=O)C4COc5ccccc5O4)CC3)sc2c1` (stereo not drawn), the EC50 in test [1] was 4.45 µM (active); in test [2] it was 30.7 µM (active); in the test with H4 it was 12.8 µM (active).
